We go through 6 compounds from patent US9867375B2, “Methods of pest control in soybean” (Syngenta Participations AG, priority 2012, dated 2018).

Usually pest or weed control stands for how far the test organism was held down.

One assay concerns Euschistus heros. Briefly: Euschistus heros (Neotropical brown stink bug) contact/feeding activity on sprayed soybean plants. To be noted: Euschistus heros, 120 h, 50 ppm; sprayed 2 week old soybean plants, 10 N-2 nymphs; evaluation 5 days after infestation on mortality and growth effects. The class given is in vivo. The procedure:
Euschistus heros (Neotropical brown stink bug) (contact/feeding activity) 2 week old soybean plants are sprayed in a turn table spray chamber with the diluted spray solutions. After drying, 2 soybean seeds are added and plants are infested with 10 N-2 nymphs of the neotropical brown stink bug Euschistus heros in plastic test boxes. Boxes are incubated in a climate chamber at 25° C. and 60% RH. Evaluation is done 5 days after infestation on mortality and growth effects.
`CC(C)C(=O)NCc1ccc(C2=NOC(c3cc(Cl)cc(Cl)c3)(C(F)(F)F)C2)cc1Cl` (stereo not drawn) [Compound A2] returned a pest or weed control at 50 ppm of no less than 50%.

On to `CC(=O)NCc1ccc(N2CCC(c3cc(Cl)cc(Cl)c3)(C(F)(F)F)C2)cc1C` (stereo not drawn) [Compound A4, N-{4-[3-(3,5-dichlorophenyl)-3-(trifluoromethyl)pyrrolidin1-yl]-2-methyl-benzyl)acetamide], for which the pest or weed control at 50 ppm is no less than 50%.

With `CC(=O)NCc1ccc(C2=NCC(c3cc(Cl)cc(Cl)c3)(C(F)(F)F)C2)cc1Br` (stereo not drawn) [Compound A5, N-{2-bromo-4-[4-(3,5-dichlorophenyl)-4-trifluoromethyl-4,5-dihydro-3H-pyrrol-2yl]-benzyl}acetamide], the pest or weed control at 50 ppm is no less than 50%.

Still in this assay, the particulars now being: low application rates; sprayed soybean plants, N-2 nymphs.
`N#Cc1cc(C2=NCC(c3cc(Cl)c(Cl)c(Cl)c3)(C(F)(F)F)C2)ccc1-n1cncn1` (stereo not drawn) [Compound C2, 2-(1,2,4-triazol-1-yl)-5-[3-(3,4,5-trichlorophenyl)-3-(trifluoromethyl)-2,4-dihydropyrrol-5-yl]benzonitrile]: the “control at low application rates” value is “excellent control”.

On to `N#Cc1cc(C2=NOC(c3cc(Cl)c(F)c(Cl)c3)(C(F)(F)F)C2)ccc1-n1cncn1` (stereo not drawn) [Compound C3], for which the “control at low application rates” value was “excellent control”.

Take `N#Cc1cnn(-c2ccc(C3=NOC(c4cc(Cl)c(F)c(Cl)c4)(C(F)(F)F)C3)cc2C#N)c1` (stereo not drawn) [Compound D1]: the “control at low application rates” value is listed as “excellent control”.
